The text below walks through data of publication PMC11565411, “Proinsulin C-peptide is a major source of HLA-DQ8 restricted hybrid insulin peptides recognized by human islet-infiltrating CD4^+ T cells” (PNAS Nexus, 2024).

Assay [1] relates to T cell avatar A_4_2 (Jurkat expressing TCR from human islet-infiltrating CD4+ T cell, Donor A). Description: T cell avatar NanoLuciferase response to synthetic peptide. Format: cell-based. The note with it: highest concentration tested 20 μM. An excerpt:
Briefly, we used CRISPR/Cas9 to generate a variant of the human T cell line Jurkat that was deficient in TRAC, TRBC, and CD4. […] This parental Jurkat line was then transduced with the TRAV and TRBV constructs that express the TRAV and TRBV genes that form the TCR expressed by human islet-infiltrating CD4^+ T cells. […] Transduced cells expressing CD3 and TCR were purified by flow cytometry or magnetic bead enrichment. Briefly, cells were resuspended in viral supernatant at 1–2 × 10^6/ml with 5 μg/ml polybrene. Cells were centrifuged at 1,200 rpm (300 g) for 60 min at room temperature, then diluted 1:1 in fresh medium and incubated overnight at 37 °C, 5% CO2. […] Compensation settings were determined using single-color controls. […]
The HIP super-pool bacteria were cultured from frozen glycerol stock in LB media with antibiotics at 37 °C with agitation 210 rpm. […] After 22–24 h of coculture, the NanoLuciferase activity was measured using the Nano-Glo Luciferase assay (Promega) according to the manufacturer's instructions. Luminescence was measured on a plate reader (Enspire Perkin Elmer). Responses are reported as the Δluciferase, which is calculated by subtracting the average background (no antigen) luciferase reading measured in the negative control cultures from the response measured in the other treatments. […]

The subject of assay [2] is T cell avatar A_4_8. The assay is described as above. Format: cell-based, human. As to conditions: highest concentration tested 20 μM. From the text:
(§1) Briefly, we used CRISPR/Cas9 to generate a variant of the human T cell line Jurkat that was deficient in TRAC, TRBC, and CD4. […] This parental Jurkat line was then transduced with the TRAV and TRBV constructs that express the TRAV and TRBV genes that form the TCR expressed by human islet-infiltrating CD4^+ T cells. […] Transduced cells expressing CD3 and TCR were purified by flow cytometry or magnetic bead enrichment. Briefly, cells were resuspended in viral supernatant at 1–2 × 10^6/ml with 5 μg/ml polybrene. Cells were centrifuged at 1,200 rpm (300 g) for 60 min at room temperature, then diluted 1:1 in fresh medium and incubated overnight at 37 °C, 5% CO2. Flow cytometry was performed on a Becton Dickinson LSR Fortessa to determine the proportion of CD3 and TCR expressing cells. The following antihuman mAbs were used for FACS staining: CD3-PE (UCHT1, BD Biosciences), and anti-TCRαβ-AF647 (IP26, BioLegend). Cells were stained with the appropriate mAb in phosphate buffered saline (PBS) 0.1% foetal bovine serum (FBS) for 20 min on ice, then washed twice. Dead cells were excluded by propidium iodide staining. Compensation settings were determined using single-color controls. TCR and CD3 expressing cells were purified by FACS or using REALease CD3 Microbead Kit (Miltenyi) following the manufacturer's instructions. All Jurkat T cell avatars used were >85% CD3^+/TCR^+.
(§2) The HIP super-pool bacteria were cultured from frozen glycerol stock in LB media with antibiotics at 37 °C with agitation 210 rpm. The overnight HIP-expressing bacteria cultures were diluted to an OD600 of 0.06 and grown in 48-well plates in 200 μl LB medium with antibiotics until an OD600 of 0.5 was reached. […] After 22–24 h of coculture, the NanoLuciferase activity was measured using the Nano-Glo Luciferase assay (Promega) according to the manufacturer's instructions. Luminescence was measured on a plate reader (Enspire Perkin Elmer). Responses are reported as the Δluciferase, which is calculated by subtracting the average background (no antigen) luciferase reading measured in the negative control cultures from the response measured in the other treatments.
(§3) Peptides (Genscript) were dissolved in dimethyl sulfoxide (DMSO) to 5.0 mM, aliquoted and stored at −80 °C. The CD4^+ T cell avatars' responses to peptides were measured as described above; except synthetic peptides were used as antigens, instead of E. coli and the antigen/EBV cells were not cultured overnight before the T cell avatars were added. A T cell's response to antigen was measured as luciferase activity using the Nano-Glo Luciferase assay system (Promega) according to the manufacturer's instructions (as above). The HLA-restriction of the HIP-specific CD4^+ T cell clones was determined in a two-step process as described previously ([10]). […]

The subject of assay [3] is T cell avatar A_4_7. The assay is described as above. In kind it is cell-based, human. As to conditions: highest concentration tested 20 μM.
Excerpt: as §1, §2, §3

Assay [4] relates to HIP-specific T cell avatars. Kind of assay: T cell avatar NanoLuciferase response, panel of HIP-specific avatars. As to conditions: nine HIP-specific avatars; highest concentration 20 μM; weak left-hand response in 3 of 9 avatars; very weak C-peptide response in three cases. In kind it is cell-based, human. Here is the method:
as §2, with “reached. Protein expression was induced by adding isopropyl β-D-thiogalactopyranoside (2.0 mM, Sigma). Incubation was continued for another 4 h at 37 °C in a shaking incubator.” for “reached.”
Peptides (Genscript) were dissolved in dimethyl sulfoxide (DMSO) to 5.0 mM, aliquoted and stored at −80 °C. The CD4^+ T cell avatars' responses to peptides were measured as described above; except synthetic peptides were used as antigens, instead of E. coli and the antigen/EBV cells were not cultured overnight before the T cell avatars were added. […] The T cell avatar's responses were measured as above. […]

The test system of a further assay is T cell avatar A_4_5. As to conditions: previous characterisation, clone A4.5 (A_4_5); ref [15, 34]; cited from earlier work. An excerpt: (§4) Supplement pgae491_supplementary_data.docx, table 6: Supplementary Table 6. Summary of previous characterisation of human islet-infiltrating CD4^+ T cells. | column: HLA-restriction
The test system of a further assay is T cell avatar A_4_6. The note with it: previous characterisation, clone A3.10 (A_4_6); ref [15, 34]; cited from earlier work.
Excerpt: as §4

The next assay deals with T cell avatar K_4_161. Description: T cell avatar NanoLuciferase response to synthetic peptide. In kind it is cell-based, human.
Excerpt: as §1, §2, §3

Assay [5] concerns T cell avatar A_4_8. The note with it: previous characterisation, clone A5.8 (A_4_8); ref [5]; cited from earlier work.
Excerpt: as §4

Assay [6] relates to T cell avatar A_4_2 (Jurkat expressing TCR from human islet-infiltrating CD4+ T cell, Donor A). As to conditions: previous characterisation, clone A1.9 (A_4_2); ref [5, 34]; cited from earlier work.
Excerpt: as §4

In assay [7] the test system is T cell avatar A_4_7. The note with it: previous characterisation, clone A5.5 (A_4_7); ref [5]; cited from earlier work.
Excerpt: as §4

Turning to “EAEDLQVGQVELGGGPGAGSLQPLALEGSLQ [C-peptide, full-length proinsulin C-peptide]”, the “response to full-length C-peptide (Δluciferase)” value (in [1]; in the assay on T cell avatar A_4_8 [2]; in the assay with T cell avatar A_4_7 [3]) was “very weak” each time. Also, the “T cell avatar response (Δluciferase) to native peptide” value in [4] is on record as “did not respond”.

In the case of “GQVELGGG-NAVEVLK [HIP-6, previously reported C-peptide-IAPP2 HIP]”, the HLA-restriction result with T cell avatar A_4_5 and in the assay on T cell avatar A_4_6 was “HLA-DQ8” each time.

Take “REAEDLQVG-VCGERGF [HIP-K, hybrid insulin peptide formed by fusion of proinsulin fragments]”: the HLA restriction result with T cell avatar K_4_161 (blocking mAbs and single-HLA APC lines, peptide 1.0 μM) is “DQ8”. Further, the EC50 (as a rule, the concentration at which the effect is half-maximal) in the assay with T cell avatar K_4_161 (synthetic peptide titration, autologous EBV B cells, NanoLuciferase, triplicate) was more than 20 µM.

As to VELGGGPGA, the HLA-restriction result (in the assay with T cell avatar A_4_8 [5]; in assay [6]; in the assay with T cell avatar A_4_7 [7]) was “HLA-DQ8” each time.
